Assay results as given in the NIST ThermoML archive (doi:10.1021/je400157s).

Columns and labels:
[1] = molar heat capacity at constant pressure; conditions: 101.33 kPa, Liquid, Small sample (50 mg) DSC
[2] = Liquid; for mass density: 101.33 kPa, Vibrating tube method; for speed of sound: Pulse-echo method

CCCCCCCC(=O)OCC [ethyl octanoate]
Conditions	mass density, [2] [kg/m3]	molar heat capacity at constant pressure, [1] [J/K/mol]
278.15 K	879.5	–
283.15 K	875.22	–
285.01 K	–	338
288.15 K	870.94	–
288.16 K	–	339.38
293.15 K	866.65	341.09
298.15 K	862.36	343.12
303.15 K	858.07	–
303.16 K	–	345.31
308.15 K	853.76	347.48
313.15 K	849.46	349.66
318.15 K	845.14	–
318.16 K	–	351.96
323.15 K	840.81	354.35
328.14 K	–	356.9
328.15 K	836.47	–
333.15 K	832.12	358.95
338.15 K	827.76	361.55
343.15 K	823.39	–
343.16 K	–	363.7
343.78 K	–	364.29
348.15 K	819	–
353.15 K	814.59	–
358.15 K	810.17	–

[2]
Conditions	speed of sound [m/s]
292.9 K, 101320 kPa	1668.8
292.91 K, 45590 kPa	1484.7
292.91 K, 60790 kPa	1539.2
292.91 K, 75990 kPa	1590
292.91 K, 91180 kPa	1638.3
292.92 K, 15200 kPa	1359
292.92 K, 30390 kPa	1426.7
292.94 K, 100 kPa	1281.8
298.2 K, 45590 kPa	1468.7
298.2 K, 60790 kPa	1523.7
298.2 K, 75990 kPa	1575
298.2 K, 91180 kPa	1623.9
298.21 K, 30390 kPa	1407.9
298.21 K, 101320 kPa	1654.1
298.22 K, 100 kPa	1261.5
298.22 K, 15200 kPa	1340.8
303.13 K, 45590 kPa	1453.6
303.13 K, 60790 kPa	1509.1
303.13 K, 75990 kPa	1561.4
303.13 K, 91180 kPa	1610.1
303.13 K, 101320 kPa	1639.9
303.14 K, 15200 kPa	1324.2
303.14 K, 30390 kPa	1391.8
303.2 K, 100 kPa	1242.5
308.11 K, 15200 kPa	1307.5
308.11 K, 30390 kPa	1376.3
308.11 K, 45590 kPa	1438.7
308.11 K, 60790 kPa	1494.9
308.11 K, 75990 kPa	1547.2
308.11 K, 91180 kPa	1596.5
308.11 K, 101320 kPa	1627.7
308.17 K, 100 kPa	1223.6
313.09 K, 60800 kPa	1480.5
313.09 K, 91180 kPa	1582.8
313.1 K, 75990 kPa	1533
313.1 K, 101320 kPa	1614.8
313.11 K, 15200 kPa	1290.2
313.11 K, 30390 kPa	1360.2
313.11 K, 45590 kPa	1423.1
313.15 K, 100 kPa	1205
318.24 K, 30390 kPa	1343.9
318.26 K, 15200 kPa	1273
318.26 K, 45590 kPa	1407.4
318.26 K, 60800 kPa	1466
318.26 K, 75990 kPa	1519.4
318.26 K, 91180 kPa	1569.6
318.27 K, 101320 kPa	1601.6
318.32 K, 100 kPa	1185.7
